Assay: Induction of PHB2-mediated melanogenesis in mouse Melan-a cells assessed as pigmentation after 72 hrs

## NCCOCCOCCNc1nc(NCc2cccc(F)c2)nc(Oc2c(F)c(F)c(F)c(F)c2F)n1
  EC50: 2500 nM

— BindingDB's records for doi:10.1016/j.ejmech.2018.06.052 (Cnrs/University of Strasbourg, 2018)
